In patent US6512099B2, “Roselipin derivative” (Kitasato Institute, priority 2001, dated 2003):

Legend:
[1] = system: Acholeplasma laidlawii KB174; assay: Paper disk growth inhibition circle; assay type: cell-based; settings: 10 μg on 6 mm filter paper
[2] = biological target: diacylglycerol acyltransferase; assay: Inhibitory activity against diacylglycerol acyltransferase derived from rat (rat liver microsome fraction); assay type: biochemical; settings: 23° C., 15 minutes, read-out: concentration which inhibited 50% of the diacylglycerol acyltransferase
Experimental: A diacylglycerol acyltransferase activity was measured by means of a partially modified version of a method of Mayorek and Bar-Tana (Journal of Biological Chemistry, vol. 260, pp. […], 1985). That is, using a microsome fraction prepared from a rat liver as an enzyme source, 0.75 mM 1,2-dioleoyl-sn-glycerol and 30 μM [1-^14C]palmitoyl-CoA (0.02 μCi) were added to 175 mM tris-hydrochloric acid (HCl)(pH: 8.0) buffer containing 8 mM MgCl2, 1 mg/ml bovine serum albumin and 2.5 mM diisopropyl fluorophosphonate to a total volume of 200 μL. The mixture was allowed to react at 23° C. for 15 minutes. […] Thereafter, the radioactivity of a triacylglycerol fraction was measured by an RI radio scanner (manufactured by AMBIS CO., LTD.) to measure the diacylglycerol acyltransferase activity.

[3] = system: Raji cell derived from human Burkitt lymphoma; assay: Inhibitory activity against production of triacylglycerol in human-derived cell (Raji); assay type: cell-based; settings: 0.5 h, [1-14C]oleic acid, 37° C., 30 minutes, read-out: concentration which inhibited 50% of production of triacylglycerol
Experimental: An influence on production of triacylglycerol was examined in accordance with a method by TOMODA et al. (Journal of Biological Chemistry, vol. 266, pp. 4,212 to 4,219, 1991) by use of a human-derived cell (Raji cell derived from human Burkitt lymphoma). 200 μl of 2.7×10^5 cells/ml of Raji cell solution [1-^14C]oleic acid (0.02 μCi) was allowed to react at 37° C. for 30 minutes. After all lipids were extracted from a mixed solution of chloroform and methanol (mixing ratio=1:2), a measurement was carried out by use of the same method as used for the inhibitory activity against diacylglycerol acyltransferase derived from a rat. The concentrations of the roselipin R-3A, R-3B, R-4 and R-5 compounds which inhibited 50% of production of triacylglycerol were measured.

Mucor racemosus KF223 = assay: Paper disk growth inhibition circle; assay type: cell-based; settings: 10 μg on 6 mm filter paper
Bacillus subtilis KB27 = assay: Paper disk growth inhibition circle; assay type: cell-based; settings: Bacillus subtilis KB27 (synthetic medium); 10 μg on 6 mm filter paper
Pyricularia oryzae KB180 = assay type: cell-based; settings: 10 μg on 6 mm filter paper

SMILES	Diameter of Inhibition Circle [1]	IC50 [2]	IC50 [3]	Diameter of Inhibition Circle (Mucor racemosus KF223)	Diameter of Inhibition Circle (Bacillus subtilis KB27)	Diameter of Inhibition Circle (Pyricularia oryzae KB180)
CCC(C)CC(C)CC(C)C(O)C(C)/C=C(\C)C(O)C(C)/C=C(\C)C(O)C(C)/C=C(\C)C(=O)OC[C@@H](O)[C@@H](O)[C@H](O)CO (stereo partly shown) [roselipin R-3A]	10 mm	60 µM	11 µM	14 mm	10 mm	–
CCC(C)CC(C)CC(C)C(O)C(C)/C=C(\C)C(O)C(C)/C=C(\C)C(O)C(C)/C=C(\C)C(=O)OC[C@@H](O)[C@H](O)[C@H](O)CO (stereo partly shown) [roselipin R-3B]	–	33 µM	10 µM	–	–	–
CCC(C)CC(C)CC(C)C(O[C@@H]1OC(CO)[C@@H](O)C(O)C1O)C(C)/C=C(\C)C(O)C(C)/C=C(\C)C(O)C(C)/C=C(\C)C(=O)OC (stereo partly shown) [roselipin R-4]	–	> 762 µM	200 µM	12 mm	–	16 mm
CCC(C)CC(C)CC(C)C(O)C(C)/C=C(\C)C(O)C(C)/C=C(\C)C(OC)C(C)/C=C(\C)C(=O)OC (stereo not shown) [roselipin R-5]	–	> 984 µM	250 µM	–	–	–
